Measured values reported in patent US12351576B2, “FGFR inhibitor, preparation method therefor and application thereof” (Abbisko Therapeutics Co., Ltd., priority 2018, dated 2025).
Read-outs that look alike come from different tables or passages of the source.

Assays:
FGFR1 = FGFR1 (Homo sapiens (Human), UniProt P11362); assay: In vitro biochemical kinase assay (Caliper Assay), FGFR1; details: enzyme 0.25 nM, ATP 382 μM, 20 minutes; read-out: Enzymatic activity IC50(nM) FGFR1
Experimental: (§1) I. In Vitro Biochemical Kinase Assay of FGFR 1˜3
(§2) Caliper Assay was used in the present invention to determine the inhibitory activities of the compounds against FGFR1, FGFR2, and FGFR3. The specific experimental procedure was as follows: • 1. The kinase reaction in the present invention was carried out in 384-well plates, the kinase(Carna) at a certain concentration and ATP at a certain concentration and 1 μM of peptide FAM-P22 (GL Biochem, Cat. No. 112393)) was incubated to react for a certain time at 28° C. in a reaction system consisting of 50 mM HEPES, […], 0.0015% Brij-35 and basic kinase buffer; for FGFR1, the enzyme concentration was 0.25 nM and ATP concentration was 382 μM and the reaction time was 20 minutes; for FGFR2, the enzyme concentration was 2.5 nM, ATP concentration was 1 μM, and the reaction time was 40 minutes; for FGFR3, the enzyme concentration was 8 nM, ATP concentration was 4.7 μM, and the reaction time was 30 minutes: • 2. The reaction was terminated with a stop solution (100 mM HEPES, pH 7.5, 0.2% Caliper coating, reagent, 50 mM EDTA and 0.015% Brij35); • 3. The plate with the terminated kinase reaction was transferred to the Caliper workstation to read the data; • 4. the phosphorylated and unphosphorylated peptides were separated by the Caliper microfluid migration shift technique, and the analyte was transferred by a constant buffer flow through the chip, the migration of the substrate peptide was monitored by the labeled fluorescent signal, and the kinase activity was calculated by the amount of the phosphate-based peptide formed. • 5. IC50 was determined by non-linear regression analysis of percent inhibition at different concentration level of the compound.

FGFR2 = FGFR2 (Homo sapiens (Human), UniProt P21802); assay: In vitro biochemical kinase assay (Caliper Assay), FGFR2; details: enzyme 2.5 nM, ATP 1 μM, 40 minutes; read-out: Enzymatic activity IC50(nM) FGFR2
Sequence of FGFR2 (P21802 22-821): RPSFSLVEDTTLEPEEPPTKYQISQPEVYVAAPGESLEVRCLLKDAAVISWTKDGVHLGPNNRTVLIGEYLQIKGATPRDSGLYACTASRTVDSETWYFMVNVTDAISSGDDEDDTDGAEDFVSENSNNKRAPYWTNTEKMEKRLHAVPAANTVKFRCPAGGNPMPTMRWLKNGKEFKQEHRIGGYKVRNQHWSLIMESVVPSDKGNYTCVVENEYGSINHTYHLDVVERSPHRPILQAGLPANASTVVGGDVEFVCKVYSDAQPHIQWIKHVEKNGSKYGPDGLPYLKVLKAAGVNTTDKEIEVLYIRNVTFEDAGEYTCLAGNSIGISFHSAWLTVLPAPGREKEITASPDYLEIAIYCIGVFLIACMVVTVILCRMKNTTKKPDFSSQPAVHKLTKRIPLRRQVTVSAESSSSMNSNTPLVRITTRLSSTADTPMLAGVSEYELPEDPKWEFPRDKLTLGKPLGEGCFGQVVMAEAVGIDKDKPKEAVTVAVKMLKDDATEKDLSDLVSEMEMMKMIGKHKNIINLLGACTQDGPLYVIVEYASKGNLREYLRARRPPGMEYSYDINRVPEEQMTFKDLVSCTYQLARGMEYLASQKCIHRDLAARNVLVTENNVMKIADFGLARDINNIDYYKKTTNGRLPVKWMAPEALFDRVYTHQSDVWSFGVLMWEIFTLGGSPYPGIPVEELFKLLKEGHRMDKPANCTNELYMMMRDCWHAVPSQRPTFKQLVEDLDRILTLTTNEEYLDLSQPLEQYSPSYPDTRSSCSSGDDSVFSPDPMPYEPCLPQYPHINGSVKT
Experimental: as §1, §2

FGFR3 = FGFR3 (Homo sapiens (Human), UniProt P22607); assay: In vitro biochemical kinase assay (Caliper Assay), FGFR3; details: enzyme 8 nM, ATP 4.7 μM, 30 minutes; read-out: Enzymatic activity IC50(nM) FGFR3
Sequence of FGFR3 (P22607 23-806): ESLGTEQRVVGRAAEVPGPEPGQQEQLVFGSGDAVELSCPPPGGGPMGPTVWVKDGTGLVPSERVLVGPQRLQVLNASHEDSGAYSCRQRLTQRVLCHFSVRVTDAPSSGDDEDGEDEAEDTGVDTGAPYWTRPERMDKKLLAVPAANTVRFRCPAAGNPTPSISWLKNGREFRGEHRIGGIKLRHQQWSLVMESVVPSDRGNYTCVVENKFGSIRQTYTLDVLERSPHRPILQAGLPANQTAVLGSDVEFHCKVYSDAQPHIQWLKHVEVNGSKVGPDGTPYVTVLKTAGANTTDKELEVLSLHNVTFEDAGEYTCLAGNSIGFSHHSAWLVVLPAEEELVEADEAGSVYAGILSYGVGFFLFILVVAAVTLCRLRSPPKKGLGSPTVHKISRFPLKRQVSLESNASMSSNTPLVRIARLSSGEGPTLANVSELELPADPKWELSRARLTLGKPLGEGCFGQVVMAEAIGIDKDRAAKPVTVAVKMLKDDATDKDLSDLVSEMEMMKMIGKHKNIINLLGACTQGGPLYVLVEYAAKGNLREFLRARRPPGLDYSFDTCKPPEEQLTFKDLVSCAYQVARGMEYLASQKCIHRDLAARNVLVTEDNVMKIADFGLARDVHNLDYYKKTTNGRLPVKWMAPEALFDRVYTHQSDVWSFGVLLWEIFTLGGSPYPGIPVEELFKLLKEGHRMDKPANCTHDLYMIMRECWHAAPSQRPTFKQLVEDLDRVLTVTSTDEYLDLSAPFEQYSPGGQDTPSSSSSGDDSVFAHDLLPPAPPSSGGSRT
Experimental: as §1, §2

[1] = system: Snu-16 gastric cancer cells (FGFR2 gene amplification); assay: Cell proliferation assay (Cell Titer Glo), Snu-16; format: cell-based; details: Homo sapiens, SNU-16, 72 h, Snu-16 cells, 3 days, CTG, read-out: Cellular IC50 (nM) Sun16
Experimental: (§3) II. Cell Proliferation Assay (Cell Titer Glo(CTG) Assay)
(§4) The FGFR signal pathway dependent inhibitory effect of the compound in the present invention on cell proliferation was assessed by survival test using CTG reagent (Promega, 4G7573). Cell lines representative of a variety of tumor types, including H1581 lung cancer cells (FGFR1 gene amplification), Snu-16 gastric cancer cells (FGFR2 gene amplification), and RT112 bladder carcinoma cells (FGFR3-TACC3 fusion) from Nanjing Cobioer Biosciences, were selected for the assay. The specific experimental procedure was as follows: • 1. 90 μL of cells were seeded into a 96-well plate processed with TCM (Costar 43904), and incubated overnight at 37° C. in a 5% CO2 incubator; afterwards, 10 μL of the culture medium containing the compound at 10 fold of its final concentration was added; • 2. The dose-dependent effect was evaluated by a serial dilution of the test compound, starting from 10 μM or a lower concentration. • 3. The cells were incubated at 37° C. under 5% C02 for 3 days, then added 50 μL CTG, and read the data with Envision (Pelkin Elmer) to quantify the ATP level in the cells. The ATP levels in cells with treatment of inhibitor at a variety of concentrations were compared with those in cells of the control group (in which DMSO was added into the medium) to evaluate the compound percent inhibition of cell proliferation/survival. • 4. The compound half growth inhibitory concentration (IC50) was determined in Graphpad Prism by 4-parameter curve fitting.

[2] = system: H1581 lung cancer cells (FGFR1 gene amplification); assay: Cell proliferation assay (Cell Titer Glo), H1581; format: cell-based; details: 3 days, CTG, read-out: Cellular IC50 (nM) H1581
Experimental: as §3, §4

[3] = system: RT112 bladder carcinoma cells (FGFR3-TACC3 fusion); assay: Cell proliferation assay (Cell Titer Glo), RT112; format: cell-based; details: Homo sapiens, RT-112, 72 h, 3 days, CTG, read-out: Cellular IC50 (nM) RT112
Experimental: as §3, §4

Sequence of FGFR1 (P11362 22-822): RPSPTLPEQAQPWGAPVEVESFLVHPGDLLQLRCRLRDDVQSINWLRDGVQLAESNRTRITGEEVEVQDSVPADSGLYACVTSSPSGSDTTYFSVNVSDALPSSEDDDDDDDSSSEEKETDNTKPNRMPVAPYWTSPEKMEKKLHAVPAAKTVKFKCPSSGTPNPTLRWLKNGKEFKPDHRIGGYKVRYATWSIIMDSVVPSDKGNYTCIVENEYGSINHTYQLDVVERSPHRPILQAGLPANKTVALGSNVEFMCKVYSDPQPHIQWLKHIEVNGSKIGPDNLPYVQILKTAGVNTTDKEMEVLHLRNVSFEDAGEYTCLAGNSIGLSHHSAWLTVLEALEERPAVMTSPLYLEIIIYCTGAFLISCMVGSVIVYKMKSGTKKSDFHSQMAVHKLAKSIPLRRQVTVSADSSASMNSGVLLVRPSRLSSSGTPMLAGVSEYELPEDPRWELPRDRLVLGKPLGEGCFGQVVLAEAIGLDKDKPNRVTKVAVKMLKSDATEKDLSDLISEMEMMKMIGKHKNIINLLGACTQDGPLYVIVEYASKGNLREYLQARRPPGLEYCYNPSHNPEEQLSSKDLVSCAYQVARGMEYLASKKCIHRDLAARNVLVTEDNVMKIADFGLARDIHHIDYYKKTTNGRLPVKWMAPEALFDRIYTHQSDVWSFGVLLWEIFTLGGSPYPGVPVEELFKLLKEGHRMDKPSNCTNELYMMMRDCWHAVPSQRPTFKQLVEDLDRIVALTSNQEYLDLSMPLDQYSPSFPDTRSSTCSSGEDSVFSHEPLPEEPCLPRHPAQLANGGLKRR

Row | SMILES | IC50 (FGFR1) [nM] | IC50 (FGFR2) [nM] | IC50 (FGFR3) [nM] | IC50 [1] [nM] | IC50 ([2]; Homo sapiens, NCI-H1581, 72 h) [nM] | IC50 [3] [nM] | IC50 ([1]; numeric values) [nM] | IC50 ([3]; numeric values) [nM] | IC50 [2] [nM]
1 | COc1cc(OC)c(Cl)c(-c2cc3cnc(-c4cnn(CCN5CCOCC5)c4)cc3n(C)c2=O)c1Cl [Example 15, 3-(2,6-dichloro-3,5-dimethoxyphenyl)-1-methyl-7-(1-(2-morpholinoethyl)-1H-pyrazol-4-yl)-1,6-naphthyridin-2(1H)-one] | 50 to 500 | 5 to 10 | 50 to 500 | 10 to 50 | 50 to 500 | 50 to 500 | – | – | –
2 | COc1cc(OC)c(F)c(-c2cc3cnc(-c4ccc(C5(C#N)CCC5)nc4)cc3n(C3CCOC3)c2=O)c1F (stereo not shown) [Example 32, 1-(5-(3-(2,6-difluoro-3,5-dimethoxyphenyl)-2-oxo-1-(tetrahydrofuran-3-yl)-1,2-dihydro-1,6-naphthyridin-7-yl)pyridin-2-yl)cyclobutane-1-carbonitrile] | 5 to 10 | ≤ 5 | – | – | 50 to 500 | – | 10.7 | 2.5 | –
3 | CCn1c(=O)c(-c2c(Cl)c(OC)cc(OC)c2Cl)cc2cnc(-c3cnn(CCN4CCOCC4)c3)cc21 [Example 10, 3-(2,6-dichloro-3,5-dimethoxyphenyl)-1-ethyl-7-(1-(2-morpholinoethyl)-1H-pyrazol-4-yl)-1,6-naphthyridin-2(1H)-one] | 10 to 50 | ≤ 5 | ≤ 5 | 10 to 50 | 50 to 500 | 10 to 50 | – | – | –

Results, then the molecule that gave them:

Row | IC50 (FGFR1) [nM] | IC50 (FGFR2) [nM] | IC50 (FGFR3) [nM] | IC50 [1] [nM] | IC50 ([2]; Homo sapiens, NCI-H1581, 72 h) [nM] | IC50 [3] [nM] | IC50 ([1]; numeric values) [nM] | IC50 ([3]; numeric values) [nM] | IC50 [2] [nM] | SMILES
4 | 10 to 50 | 5 to 10 | 50 to 500 | 10 to 50 | 50 to 500 | 50 to 500 | – | – | – | COc1cc(OC)c(Cl)c(-c2cc3cnc(-c4cnn(C)c4)cc3n(C)c2=O)c1Cl [Example 2, 3-(2,6-dichloro-3,5-dimethoxyphenyl)-1-methyl-7-(1-methyl-1H-pyrazol-4-yl)-1,6-naphthyridin-2(1H)-one]
5 | 5 to 10 | ≤ 5 | ≤ 5 | 5 to 10 | – | – | – | – | 50 to 500 | COc1cc(OC)c(Cl)c(-c2cc3cnc(-c4cnn(C)c4)cc3n(C3CCOC3)c2=O)c1Cl (stereo in doubt) [Example 21, (R)-3-(2,6-dichloro-3,5-dimethoxyphenyl)-7-(1-methyl-1H-pyrazol-4-yl)-1-(tetrahydrofuran-3-yl)-1,6-naphthyridin-2(1H)-one]
